Measurements from patent US8629084B2, “Iodine-phenyl-substituted cyclic cetoenols” (Bayer CropScience AG, priority 2004, dated 2014).
Each block holds one compound with its values, some of them ahead of it.

How the values were obtained:
[1] = logP determination by HPLC on reversed-phase column (C18), EEC Directive 79/831 Annex V.A8; format: physicochemical; details: for log P: value in preparation example text
Description: • The logP values given in the Tables and Preparation Examples above are determined in accordance with EEC Directive 79/831 Annex V.A8 by HPLC (High Performance Liquid Chromatography) on a reversed-phase column (C18). Temperature: 43° C.
The determination is carried out in the acidic range at pH 2.3 using the mobile phases 0.1% aqueous phosphoric acid and acetonitrile; linear gradient from 10% acetonitrile to 95% acetonitrile. […]
Calibration is carried out using unbranched alkan-2-ones (having 3 to 16 carbon atoms) with known logP values (determination of the logP values by the retention times using linear interpolation between two successive alkanones).

cereal = assay: Herbicidal post-emergence action with use of safeners (Example G): container trials with cereal in a greenhouse, mefenpyr 1 day prior to herbicide application; format: in vivo; details: without safener
Description: Herbicidal Post-Emergence Action
Seeds of monocotyledonous and dicotyledonous weed and crop plants are placed into sandy loam in wood fiber pots or in plastic pots, covered with soil and cultivated in a greenhouse, during the vegetation period also outdoors outside of the greenhouse, under good growth conditions. Two to three weeks after sowing, the test plants are treated at the one- to three-leaf stage. The test compounds, formulated as wettable powders (WP) or liquid (EC), are, in various dosages at a water application rate of 300 l/ha (converted), with wetting agent (0.2 to 0.3%) added, sprayed onto the plants and the surface of the soil. […]
If it is additionally to be tested as to whether safeners can improve the plant compatibility of test substances in the case of crop plants, the following options are used for applying the safener: • seeds of the crop plants are, before sowing, dressed with the safener substance (the amount of safener stated in percent, based on the weight of the seed) • before the application of the test substances, the crop plants are sprayed with the safener at a certain application rate per hectare (usually 1 day before the application of the test substances) • the safener is applied together with the test substance as a tank mix (the amount of safener is stated in g/ha or as a ratio, based on the herbicide).
By comparing the effect of test substances on crop plants without or with safener treatment, it is possible to assess the effect of the safener substance.
Container Trials with Cereal in a Greenhouse
Mefenpyr 1 day prior to herbicide application

[2] = test system: brown plant hopper (Nilaparvata lugens); assay: Nilaparvata lugens test (hydroponic treatment); format: in vivo; details: concentration of 20 ppm
Description: Nilaparvata Lugens Test (Hydroponic Treatment)
Solvents: 78 parts by weight of acetone • • 1.5 parts by weight of dimethylformamide
Emulsifier: 0.5 part by weight of alkylaryl polyglycol ether
To produce a suitable preparation of active compound, 1 part by weight of active compound is mixed with the stated amounts of solvents and emulsifier, and the concentrate is diluted with emulsifier-containing water to the desired concentration.
The active compound preparation is pipetted into water. The stated concentration refers to the amount of active compound per volume unit of water (mg/l=ppm). After the desired period of time, the water is infected with the brown plant hopper (Nilaparvata lugens).
After the desired period of time, the effect in % is determined. 100% means that all plant hoppers have been killed; 0% means that none of the plant hoppers have been killed.

[3] = compounds of formula (I-2-b), HPLC reversed-phase C18, 43° C., acidic range pH 2.3, 0.1% aqueous phosphoric acid/acetonitrile
[4] = summer wheat, 25 g of a.i./ha, 10 days after application
[5] = summer wheat, 50 g of a.i./ha, 10 days after application
[6] = summer wheat, 100 g of a.i./ha, 10 days after application
[7] = HPLC, reversed-phase C18, 43° C., acidic range pH 2.3 (0.1% aqueous phosphoric acid/acetonitrile)
[8] = compounds of formula (I-2-a), HPLC reversed-phase C18, 43° C., acidic range pH 2.3, 0.1% aqueous phosphoric acid/acetonitrile
[9] = HPLC, reversed-phase C18, 43° C., acidic range pH 2.3 (0.1% aqueous phosphoric acid/acetonitrile), table of formula (I-2-c)

Structure (SMILES): COC1CCC2(CC1)OC(=O)C(c1cc(C)ccc1I)=C2OC(=O)C(C)(C)C (single isomer, unassigned) [Example I-2-b-6]
logP [1, 3]: 4.57

Structure (SMILES): COC1CCC2(CC1)OC(=O)C(c1cc(C)ccc1I)=C2OC(=O)C(C)(C)C (single isomer, unassigned) [Example I-2-b-7]
logP [1, 3]: 4.24

Structure (SMILES): Cc1cc(C)c(C2=C(O)C3(CCC(C)CC3)NC2=O)c(I)c1 (stereo not shown) [Example I-1-a-3]
Summer wheat observed (%) (cereal; summer wheat, 12.5 g of a.i./ha, 10 days after application): 10%
Summer wheat observed (%) (cereal; [4]): 20%
Summer wheat observed (%) (cereal; [5]): 30%
Summer wheat observed (%) (cereal; [6]): 40%

Structure (SMILES): CCOC(=O)OC1=C(c2c(C)cc(I)cc2CC)C(=O)NC12CCC(OC)CC2 (stereo not shown) [Example I-1-c-1]
Summer wheat observed (%) (cereal; the 20th table, summer wheat, 12.5 g of a.i./ha, 10 days after application): 50%

Structure (SMILES): CC1(C)OC(=O)C(c2ccccc2I)=C1O [Example I-2-a-1]
log P [1, 7]: 1.80

Structure (SMILES): COC1CCC2(CC1)OC(=O)C(c1ccccc1I)=C2O (stereo not shown) [Example I-2-a-2]
efficacy (plant hoppers killed) [2]: ≥ 80%
logP [1, 8]: 1.92

Structure (SMILES): COC1CCC2(CC1)OC(=O)C(c1cc(C)ccc1I)=C2O (stereo not shown) [Example I-2-a-4]
logP [1, 8]: 2.19

Structure (SMILES): CC(C)C(=O)OC1=C(c2ccccc2I)C(=O)OC1(C)C [Example I-2-b-1]
log P [1, 7]: 3.53

Structure (SMILES): COC1CCC2(CC1)OC(=O)C(c1ccccc1I)=C2OC(=O)C(C)(C)C (stereo not shown) [Example I-2-b-2]
logP [1, 3]: 3.95

Structure (SMILES): COC1CCC2(CC1)OC(=O)C(c1ccccc1I)=C2OC(=O)C(C)C (stereo not shown) [Example I-2-b-3]
logP [1, 3]: 3.6

Structure (SMILES): CC(C)(C)C(=O)OC1=C(c2ccccc2I)C(=O)OC1(C)C [Example I-2-b-4]
logP [1, 3]: 3.87

Structure (SMILES): Cc1ccc(I)c(C2=C(OC(=O)C(C)(C)C)C3(CCCC3)OC2=O)c1 [Example I-2-b-5]
logP [1, 3]: 4.68

Structure (SMILES): CC(C)OC(=O)OC1=C(c2ccccc2I)C(=O)OC1(C)C [Example I-2-c-1]
log P [1, 7]: 3.47

Structure (SMILES): COC1CCC2(CC1)OC(=O)C(c1ccccc1I)=C2OC(=O)OC(C)C (stereo not shown) [I-2-c-2]
logP [1, 9]: 3.54

Second part, led by results:

logP [1, 3]: 5.21
Structure (SMILES): COC1CCC2(CC1)OC(=O)C(c1c(C)cc(I)cc1C)=C2OC(=O)C(C)(C)C (single isomer, unassigned) [Example I-2-b-12]

logP [1, 3]: 4.9
Structure (SMILES): COC1CCC2(CC1)OC(=O)C(c1c(C)cc(I)cc1C)=C2OC(=O)C(C)(C)C (single isomer, unassigned) [Example I-2-b-13]

logP [1, 8]: 2.63
Structure (SMILES): CCc1cc(I)cc(C)c1C1=C(O)C2(CCOCC2)OC1=O [Example I-2-a-5]

logP [1, 8]: 2.92
Structure (SMILES): CCc1cc(I)cc(C)c1C1=C(O)C2(CCC(OC)CC2)OC1=O (stereo not shown) [Example I-2-a-6]

logP [1, 8]: 2.94
Structure (SMILES): COC1CCC2(CC1)OC(=O)C(c1c(C)cc(I)cc1C)=C2O (stereo not shown) [Example I-2-a-9]

logP [1, 3]: 4.42
Structure (SMILES): CCc1cc(I)cc(C)c1C1=C(OC(=O)C(C)C)C2(CCOCC2)OC1=O [Example I-2-b-9]

logP [1, 3]: 4.79
Structure (SMILES): CCc1cc(I)cc(C)c1C1=C(OC(=O)C(C)C)C2(CCC(OC)CC2)OC1=O (stereo not shown) [Example I-2-b-10]
Summer wheat observed (%) (cereal; [4]): 15%
Summer wheat observed (%) (cereal; summer wheat, 25 g of a.i./ha, 28 days after application): 25%
Summer wheat observed (%) (cereal; [5]): 30%
Summer wheat observed (%) (cereal; summer wheat, 50 g of a.i./ha, 28 days after application): 40%
Summer wheat observed (%) (cereal; [6]): 50%
Summer wheat observed (%) (cereal; summer wheat, 100 g of a.i./ha, 28 days after application): 50%
Summer wheat observed (%) (cereal; summer wheat, 200 g of a.i./ha, 10 days after application): 70%
Summer wheat observed (%) (cereal; summer wheat, 200 g of a.i./ha, 28 days after application): 75%
Summer wheat observed (%) (cereal; the 21st table second column (also headed Summer wheat), 25 g of a.i./ha, 10 days after application): 60%
Summer wheat observed (%) (cereal; the 21st table second column (also headed Summer wheat), 50 g of a.i./ha, 10 days after application): 65%

logP [1, 3]: 5.26
Structure (SMILES): Cc1cc(I)cc(C)c1C1=C(OC(=O)C(C)(C)C)C2(CCCC2)OC1=O [Example I-2-b-11]

logP [1, 8]: 2.51
Structure (SMILES): Cc1ccc(I)c(C2=C(O)C3(CCCC3)OC2=O)c1 [I-2-a-3]

logP [1, 8]: 2.81
Structure (SMILES): CCc1cc(I)cc(C)c1C1=C(O)C(C)(C)OC1=O [I-2-a-7]

logP [1, 8]: 3.00
Structure (SMILES): CCc1cc(I)cc(C)c1C1=C(O)C2(CCCC2)OC1=O [I-2-a-8]

logP [1, 3]: 4.72
Structure (SMILES): CCc1cc(I)cc(C)c1C1=C(OC(=O)C(C)C)C(C)(C)OC1=O [I-2-b-8]

logP [1, 9]: 4.66
Structure (SMILES): CCc1cc(I)cc(C)c1C1=C(OC(=O)OC(C)C)C(C)(C)OC1=O [I-2-c-3]

logP [1, 9]: 4.77
Structure (SMILES): CCc1cc(I)cc(C)c1C1=C(OC(=O)OC(C)C)C2(CCC(OC)CC2)OC1=O (stereo not shown) [I-2-c-4]

logP [1, 9]: 4.41
Structure (SMILES): CCc1cc(I)cc(C)c1C1=C(OC(=O)OC(C)C)C2(CCOCC2)OC1=O [I-2-c-5]
